From patent publication US9618524B2, “Method, composition, isolation and identification of a plaque particle and related biomarker” (Plaxgen Inc., priority 2012, dated 2017)

Key:
Assay in all cases: Mass spectroscopy proteomics, semi-quantitative binding affinity of serum proteins (plaqueproteome, Table 2)
Settings in all cases: higher number = stronger affinity
[1] = target: T1, alpha-synuclein plaque particles (Homo sapiens, UniProt P37840)
T1 construct: 140 amino acids polypeptide
How it was run: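 AD-subject plasma or serum (800 μL of 50%) mixed with 30 μg preformed alpha-synuclein aggregates for 1 h at 37 °C; Thioflavin S-positive particles isolated by flow sorting. After reduction, acrylamide alkylation and overnight tryptic digestion, serum proteins identified by MS/MS with Sequest and Scaffold.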

Tau plaque particles = system: Tau plaque particles; set-up: species or system human
How it was run: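 Serum or plasma proteins captured on Thioflavin S-labelled Tau plaque particles (Tau-74, Tau-275 oligomers preformed in PBS at 37° C for 2 h; 1 h co-incubation at 37° C) were isolated by FACS sorting, then tryptically digested and identified by MS/MS (Sequest, human UniProt, strict trypsin).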

[2] = target: T2, Abeta-42 plaque particles (Homo sapiens, UniProt P05067)
T2 construct: Abeta 1-42
How it was run: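 AD patient serum or plasma (50% in PBS) was incubated with Abeta-42 aggregates (30 μg) for 1 h at 37 °C, then stained with Thioflavin S for 30 min. Labeled particles were FACS-sorted, trypsin/Lys-C digested overnight and analyzed by MS/MS. Sequest searched human UniProt; Scaffold/Protein Prophet validated the identifications.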

[3] = system: High Density cholesterol (Chl Large) plaque particles; set-up: species or system human
How it was run: (§1)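 Proteins bound to flow-sorted cholesterol plaque particles (large/high-density or small/low-density gates) were identified by LC-MS/MS after trypsin digestion. Particles were formed from 50% atherosclerotic serum or plasma with 30 μg cholesterol aggregates, 1 h, 37 °C. Sequest human database search; Scaffold validation.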

[4] = system: Low density cholesterol (Chl small) plaque particles; set-up: species or system human
How it was run: as §1

| Substance | Semi-quantitative analysis of proteins binding to different plaque particles: Synuclein [1] | Semi-quantitative analysis of proteins binding to different plaque particles: Tau (Tau plaque particles) | Semi-quantitative analysis of proteins binding to different plaque particles: Abeta-42 [2] | Semi-quantitative analysis of proteins binding to different plaque particles: Chl Large [3] | Semi-quantitative analysis of proteins binding to different plaque particles: Chl small [4] |
| --- | --- | --- | --- | --- | --- |
| Ig heavy chain V-III region JON | 1 | 1 | 0 | 0 | 1 |
| Complement component C7 | 1 | 4 | 0 | 4 | 6 |
| Phosphatidylcholine-sterol acyltransferase | 1 | 0 | 0 | 1 | 0 |
| Ig kappa chain V-III region POM | 0 | 2 | 0 | 1 | 1 |
| Ig heavy chain V-III region BUT | 1 | 1 | 2 | 1 | 1 |
| Platelet factor 4 | 1 | 1 | 2 | 1 | 0 |
| Complement component C6 | 3 | 1 | 0 | 1 | 1 |
| Cluster of Ig kappa chain V-I region HK102 | 1 | 1 | 5 | 1 | 1 |
| Cluster of Hemoglobin subunit beta | 5 | 3 | 4 | 3 | 2 |
| Ig heavy chain V-III region TEI | 3 | 4 | 5 | 4 | 5 |
| Ig kappa chain V-III region IARC/BL41 | 0 | 2 | 0 | 0 | 1 |
| Cluster of Ig gamma-1 chain C region | 56 | 37 | 23 | 57 | 63 |
| Apolipoprotein B-100 | 42 | 65 | 62 | 47 | 51 |
| Complement C1s subcomponent | 1 | 2 | 0 | 3 | 1 |
| Filaggrin-2 | 0 | 0 | 4 | 0 | 0 |
| Ig kappa chain V-III region VG | 1 | 0 | 0 | 1 | 0 |
| Complement factor B | 10 | 13 | 12 | 9 | 14 |
| Gelsolin | 6 | 9 | 2 | 8 | 9 |
| Hemoglobin subunit delta | 2 | 0 | 0 | 0 | 0 |
| Serum amyloid P-component | 0 | 2 | 5 | 1 | 1 |
